A short description of data set [1]: Stability experiments using liver microsomes (human). To be noted: 37° C., 1 h, NADPH regenerating system, radio-UPLC. The data set is classed as in vitro ADME. The source says:
General: Reagents and solvents were purchased from Sigma-Aldrich Chemie GmbH, Acros Organics or VWR International AG if nothing else is mentioned. All chemicals were used as supplied. Human and mouse (female CD-1) microsomes and the NADPH regenerating systems were purchased from BD biosciences.
Radio-UPLC: For stability studies, an ultra-performance liquid chromatography (UPLC™, Waters) system, equipped with an Acquity UPLC BEH C18 column (1.7 μm, 2.1×50 mm, Waters) and a coincidence detector (FlowStar LB513, Berthold) was used with following solvent system: eluent A was a NaH2PO4/Na2HPO4 buffer (0.05 M, pH 7.4) and eluent B was acetonitrile. A gradient from 0-4.0 min 100%-40% A, at a flow rate of 0.6 ml/min was used.
To a mixture of KH2PO4/K2HPO4 buffer (pH 7.4, 0.5 M, 200 μl), NADPH regenerating system A (50 μl), NADPH regenerating system B (10 μl), an aliquot of [^18F]-3′-aza-2′-fluorofolic acid (38 μl, approx. 15 MBq) was added and filled up with water (677 μl) to a volume of 975 μl and preincubated at 37° C. Then, mouse or human liver microsomes (20 mg/ml, 25 μl) were added and incubated at 37° C. After several time points (0, 20, 40 and 60 min) aliquots (100 μl) were drawn and the enzymatical reaction was stopped by purring the solution into ice-cold methanol (200 μl). […] Every time point was performed as a triplicate and analyzed on a radio-UPLC system. […]

Data set [2] in a line: Log D7.4 determination, shake-flask method (n-octanol/PBS). The data set is classed as physicochemical. The following applies: n-octanol/PBS pH 7.4, room temperature, n=10. Here is the method: Determination of the Log D: Determination of the log D value was performed, using the shake-flask-method, where the partition coefficient of the radiotracer between n-octanol and phosphate buffered saline (PBS) was determined (Wilson et al. 2001 Applied Radiation and Isotopes). n-Octanol (0.5 ml) and PBS (0.5 ml) were mixed in an Eppendorf tube containing the radioactive sample (5-10 μl). Tubes were shaken for 15 min at room temperature in an over-head shaker and afterwards centrifuged (3 min, 5000 rpm). From each Eppendorf tube, 50 μl of each phase were transferred into a vial for counting in a γ-counter. The log D value was calculated according to the following equation: log D7.4=log [activity(octanol phase)/activity PBS phase)].
For log D7.4 determination a phosphate buffer was prepared, making a solution of KH2PO4 (1.743 g, 12.81 mmol) and Na2HPO4.2H2O (9.596 g, 53.91 mmol) in water (1000 ml). A saturated solution of phosphate buffer in n-octanol and a saturated solution of n-octanol in phosphate buffer were prepared. The PBS solution (500 μl) and n-octanol solution (500 μl) were pipetted into an Eppendorf tube and the radiotracer (5-10 μl) was added. The Eppendorf tube was shaken for 15 min at room temperature in an over-head shaker. […] By calculating the logarithm of the ratio of the counts in the n-octanol and the PBS phase, the log D7.4 value was determined. […]

In the case of `Nc1nc2ncc(CNc3ccc(C(=O)N[C@@H](CCC(=O)O)C(=O)O)c([18F])n3)nc2c(=O)[nH]1` [3′-aza-2′-[^18F]fluorofolic acid], in data set [1], the “Stability in human liver microsomes” value was “completely stable”. The “log D7.4 (partition coefficient in n-octanol/PBS)” value in data set [2] is −4.2±0.1. For the same compound, the logD in data set [2] (read-out: log D7.4 (partition coefficient in n-octanol/PBS)) was -4.2 ± 0.1.

The record behind these values is US10357576B2, “18F-labelled folate/antifolate analogues” (MERCK & CIE, priority 2012, dated 2019).
